Assay results: ChEMBL document CHEMBL1139047, “Design and synthesis of a novel class of furan-based molecules as potential 20S proteasome inhibitors” (Bioorg Med Chem Lett, 2007)

Assays:
[1] = Inhibition of chymotrypsin-like activity of 20S proteasome; type: subcellular, Homo sapiens
[2] = test system: HL-60; test: Antiproliferative activity against human HL60 cells; type: functional, cell-based
[3] = test system: HepG2; test: Antiproliferative activity against human HepG2 cells; type: functional, cell-based
[4] = Inhibition of trypsin-like activity of 20S proteasome; type: subcellular, Homo sapiens
[5] = Inhibition of peptidyl-glutamyl peptide hydrolase activity of 20S proteasome; type: subcellular, Homo sapiens

SMILES	IC50 [1] [µM]	other results
CC(C)[C@H](NC(=O)[C@H](NCc1ccccc1)[C@H](O)[C@H](Cc1ccccc1)NC(=O)OC(C)(C)C)C(=O)c1ccco1	> 100	
CC(C)C[C@H](NC(=O)[C@H](Nc1ccccc1)[C@H](O)[C@H](Cc1ccccc1)NC(=O)OC(C)(C)C)C(=O)c1ccco1	> 100	
CC[C@@H](C)[C@H](NC(=O)[C@H](Nc1ccccc1)[C@H](O)[C@H](Cc1ccccc1)NC(=O)OC(C)(C)C)C(=O)c1ccco1	> 100	
CC[C@H](C)[C@H](NC(=O)[C@H](Cc1ccccc1)NC(=O)[C@H](Cc1ccccc1)NC(=O)OC(C)(C)C)C(=O)c1ccco1	> 100	
CC(C)[C@H](NC(=O)[C@H](Nc1ccccc1)[C@H](O)[C@H](Cc1ccccc1)NC(=O)OC(C)(C)C)C(=O)c1ccco1	> 100	
CC(C)C[C@H](NC(=O)[C@H](NCc1ccccc1)[C@H](O)[C@H](Cc1ccccc1)NC(=O)OC(C)(C)C)C(=O)c1ccco1	> 100	
CC[C@@H](C)[C@H](NC(=O)[C@H](NCc1ccccc1)[C@H](O)[C@H](Cc1ccccc1)NC(=O)OC(C)(C)C)C(=O)c1ccco1	> 100	

Now from value to molecule, other results behind:

IC50 [1] [µM]	SMILES	other results
> 100	CC[C@H](C)[C@H](NC(=O)[C@@H](NC(=O)[C@H](Cc1ccccc1)NC(=O)OC(C)(C)C)C(C)C)C(=O)c1ccco1	
7.85	CC(C)C[C@H](NC(=O)[C@H](Cc1ccccc1)NC(=O)[C@H](Cc1ccccc1)NC(=O)OC(C)(C)C)C(=O)c1ccco1	IC50 [2]: 37.1 µM; IC50 [3]: 34.2 µM; IC50 [4]: > 100 µM; IC50 [5]: > 100 µM
> 100	CC(C)C[C@H](NC(=O)[C@H](Cc1ccccc1)NC(=O)OC(C)(C)C)C(=O)N[C@@H](CC(C)C)C(=O)c1ccco1	
> 100	CC(C)[C@H](NC(=O)[C@H](Cc1ccccc1)NC(=O)OC(C)(C)C)C(=O)N[C@H](C(=O)c1ccco1)C(C)C	
> 100	CC(C)C[C@H](NC(=O)[C@H](Cc1ccccc1)NC(=O)OC(C)(C)C)C(=O)N[C@H](C(=O)c1ccco1)C(C)C	
> 100	CC[C@H](C)[C@H](NC(=O)[C@H](CC(C)C)NC(=O)[C@H](Cc1ccccc1)NC(=O)OC(C)(C)C)C(=O)c1ccco1	
> 100	CC(C)[C@H](NC(=O)[C@H](Cc1ccccc1)NC(=O)[C@H](Cc1ccccc1)NC(=O)OC(C)(C)C)C(=O)c1ccco1	
> 100	CC(C)C[C@H](NC(=O)[C@@H](NC(=O)[C@H](Cc1ccccc1)NC(=O)OC(C)(C)C)C(C)C)C(=O)c1ccco1	
